Reference: ChEMBL document CHEMBL1201862, “PubChem BioAssay data set” (2004)
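Method: 48-hour compound exposure of cells in 96-well plates, five concentrations, linear interpolation of endpoints. GI50: concentration for 50% inhibition of growth.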 Active and inactive are the calls of the source. No stated cut-off is given here; in the data, active = GI50 up to about 1.1 µM and inactive = higher. Where a SMILES comes first, the peptide text is derived from it. [ ]: non-standard residue; d: D form. Ac5c = NC1(C(=O)O)CCCC1

Key:
Assay in all cases: NCI anticancer screen, dose series, 48 h
MCF7 = test system: MCF7
OVCAR-3 = test system: OVCAR-3
HCT-15 = test system: HCT-15
OVCAR-5 = test system: OVCAR-5
MOLT-4 = test system: MOLT-4
M14 = test system: M14
MDA-N = test system: MDA-N
NCI-H460 = test system: NCI-H460
ACHN = test system: ACHN
COLO 205 = test system: COLO 205
SW-620 = test system: SW-620
SNB-19 = test system: SNB-19
IGROV-1 = test system: IGROV-1
MDA-MB-231 = test system: MDA-MB-231
SK-MEL-2 = test system: SK-MEL-2
HL-60 = test system: HL-60
SR = test system: SR
NCI-H522 = test system: NCI-H522
SK-OV-3 = test system: SK-OV-3
RXF 393 = test system: RXF 393

CC1=CC(C)C(O)C(C)/C=C\C(O)C/C=C(/C)C(=O)CC(O)C(C)\C=C/C=C\C=C/C(=O)NC2=C(O)C(=O)c3c(cc(C)c(O)c3C1=O)C2=O (configuration not stated)
GI50 (MCF7): 25.8 µM (inactive) | GI50 (OVCAR-3): > 100 µM (inactive) | GI50 (HCT-15): > 100 µM | GI50 (OVCAR-5): > 100 µM (inactive) | GI50 (MOLT-4): 71.1 µM (inactive) | GI50 (M14): > 100 µM (inactive) | GI50 (MDA-N): > 100 µM (inactive) | GI50 (NCI-H460): > 100 µM (inactive) | GI50 (ACHN): > 100 µM (inactive) | GI50 (COLO 205): > 100 µM (inactive) | GI50 (SW-620): > 100 µM (inactive) | GI50 (SNB-19): > 100 µM (inactive) | GI50 (IGROV-1): 74.8 µM (inactive) | GI50 (MDA-MB-231): > 100 µM (inactive) | GI50 (SK-MEL-2): > 100 µM (inactive) | GI50 (HL-60): > 100 µM (inactive) | GI50 (SR): 31.9 µM (inactive) | GI50 (NCI-H522): > 100 µM (inactive)

CCOC(=O)CNC1=Nc2ccccc2C(=O)N2CSCC12 (configuration not stated)
GI50 (MCF7): > 100 µM (inactive) | GI50 (SK-OV-3): > 100 µM (inactive) | GI50 (OVCAR-3): > 100 µM (inactive) | GI50 (HCT-15): > 100 µM | GI50 (OVCAR-5): > 100 µM (inactive) | GI50 (RXF 393): > 100 µM (inactive) | GI50 (MOLT-4): > 100 µM (inactive) | GI50 (M14): > 100 µM (inactive) | GI50 (MDA-N): > 100 µM (inactive) | GI50 (NCI-H460): > 100 µM (inactive) | GI50 (ACHN): > 100 µM (inactive) | GI50 (COLO 205): > 100 µM (inactive) | GI50 (SW-620): > 100 µM (inactive) | GI50 (SNB-19): > 100 µM (inactive) | GI50 (IGROV-1): > 100 µM (inactive) | GI50 (MDA-MB-231): > 100 µM (inactive) | GI50 (SK-MEL-2): > 100 µM (inactive) | GI50 (SR): > 100 µM (inactive) | GI50 (NCI-H522): > 100 µM (inactive)

CC1(C)COP(=S)(c2ccccn2)O[C@@H]1c1ccccc1 (some centres not stated)
GI50 (MCF7): 98.6 µM (inactive) | GI50 (SK-OV-3): > 100 µM (inactive) | GI50 (HCT-15): 94.2 µM | GI50 (OVCAR-5): > 100 µM (inactive) | GI50 (RXF 393): 62.2 µM (inactive) | GI50 (MOLT-4): 30.1 µM (inactive) | GI50 (M14): > 100 µM (inactive) | GI50 (MDA-N): 74.6 µM (inactive) | GI50 (NCI-H460): > 100 µM (inactive) | GI50 (ACHN): > 100 µM (inactive) | GI50 (COLO 205): 38.3 µM (inactive) | GI50 (SW-620): > 100 µM (inactive) | GI50 (SNB-19): > 100 µM (inactive) | GI50 (IGROV-1): > 100 µM (inactive) | GI50 (MDA-MB-231): > 100 µM (inactive) | GI50 (HL-60): 24.1 µM (inactive) | GI50 (SR): 30 µM (inactive) | GI50 (NCI-H522): 56.6 µM (inactive)

CC(=O)N(C(=O)CC(=O)N/N=C\c1ccc(Br)c(N(CCC#N)CCC#N)c1)c1ccc(Cl)cc1
GI50 (MCF7): 52.7 µM (inactive) | GI50 (SK-OV-3): 49.7 µM (inactive) | GI50 (OVCAR-3): 47.9 µM (inactive) | GI50 (HCT-15): 14 µM | GI50 (OVCAR-5): 11.8 µM (inactive) | GI50 (RXF 393): > 100 µM (inactive) | GI50 (MOLT-4): 42.6 µM (inactive) | GI50 (M14): 34.5 µM (inactive) | GI50 (MDA-N): 41.3 µM (inactive) | GI50 (NCI-H460): 74.5 µM (inactive) | GI50 (ACHN): 14.5 µM (inactive) | GI50 (COLO 205): 69.8 µM (inactive) | GI50 (SW-620): 93.3 µM (inactive) | GI50 (SNB-19): 25.9 µM (inactive) | GI50 (IGROV-1): 21.4 µM (inactive) | GI50 (MDA-MB-231): 10.6 µM (inactive) | GI50 (HL-60): 35.4 µM (inactive) | GI50 (SR): 44.2 µM (inactive)

O=C1CCCC1C(O)(C(F)(F)F)C(F)(F)F (configuration not stated)
GI50 (MCF7): > 100 µM (inactive) | GI50 (OVCAR-3): > 100 µM (inactive) | GI50 (HCT-15): > 100 µM | GI50 (OVCAR-5): > 100 µM (inactive) | GI50 (RXF 393): > 100 µM (inactive) | GI50 (MOLT-4): > 100 µM (inactive) | GI50 (M14): > 100 µM (inactive) | GI50 (MDA-N): > 100 µM (inactive) | GI50 (NCI-H460): > 100 µM (inactive) | GI50 (ACHN): > 100 µM (inactive) | GI50 (COLO 205): > 100 µM (inactive) | GI50 (SW-620): > 100 µM (inactive) | GI50 (SNB-19): > 100 µM (inactive) | GI50 (IGROV-1): > 100 µM (inactive) | GI50 (MDA-MB-231): > 100 µM (inactive) | GI50 (SK-MEL-2): > 100 µM (inactive) | GI50 (HL-60): > 100 µM (inactive) | GI50 (SR): > 100 µM (inactive) | GI50 (NCI-H522): > 100 µM (inactive)

CCCCC/C=C1/CC(CO)(COC(=O)CC(C(C)C)C(C)C)OC1=O (configuration not stated)
GI50 (MCF7): 17.1 µM (inactive) | GI50 (SK-OV-3): 18.9 µM (inactive) | GI50 (OVCAR-3): 17.7 µM (inactive) | GI50 (HCT-15): 18.7 µM | GI50 (OVCAR-5): 15.4 µM (inactive) | GI50 (RXF 393): 16.3 µM (inactive) | GI50 (MOLT-4): 5.42 µM (inactive) | GI50 (M14): 14.1 µM (inactive) | GI50 (MDA-N): 3.67 µM (inactive) | GI50 (NCI-H460): 13.2 µM (inactive) | GI50 (ACHN): 11.4 µM (inactive) | GI50 (COLO 205): 3.24 µM (inactive) | GI50 (SW-620): 18.3 µM (inactive) | GI50 (SNB-19): 7.62 µM (inactive) | GI50 (IGROV-1): 17.8 µM (inactive) | GI50 (MDA-MB-231): 15.6 µM (inactive) | GI50 (SK-MEL-2): 13.3 µM (inactive) | GI50 (SR): 16.6 µM (inactive) | GI50 (NCI-H522): 16.4 µM (inactive)

COC(=O)C1(NC(=O)C(C)NC(=O)C(CCCCN)NC(=O)C(CC(C)C)NC(C)=O)CCCC1 (configuration not stated) (Ac-LKA[Ac5c]-OMe; configuration not given here)
GI50 (MCF7): > 100 µM (inactive) | GI50 (SK-OV-3): > 100 µM (inactive) | GI50 (HCT-15): > 100 µM | GI50 (MOLT-4): > 100 µM (inactive) | GI50 (M14): > 100 µM (inactive) | GI50 (MDA-N): > 100 µM (inactive) | GI50 (NCI-H460): > 100 µM (inactive) | GI50 (ACHN): > 100 µM (inactive) | GI50 (COLO 205): > 100 µM (inactive) | GI50 (SW-620): > 100 µM (inactive) | GI50 (SNB-19): > 100 µM (inactive) | GI50 (IGROV-1): > 100 µM (inactive) | GI50 (MDA-MB-231): > 100 µM (inactive) | GI50 (HL-60): > 100 µM (inactive) | GI50 (SR): > 100 µM (inactive) | GI50 (NCI-H522): > 100 µM (inactive)
